In US6867198B2, “Agents and methods for the treatment of proliferative diseases” (Eli Lilly and Company, priority 1999, dated 2005):

target: T1, cyclin D1-cdk4 (Homo sapiens, UniProt P11802); experiment: Assay of Cyclin D1-cdk4 Kinase Activity with the ING Peptide as Substrate; type: biochemical; conditions: ING peptide 200 uM as substrate, 300 uM ATP, 60 minutes at room temperature
Method: Assay of Cyclin D1-cdk4 Kinase Activity with the ING Peptide as Substrate
The cyclin D1-cdk4 kinase activity of a compound was assayed by preparing a 100 ul reaction at the following concentrations: 35 mM Hepes pH 7.0, 10 mM MgCl2, 300 uM ATP, 200 uM ING peptide, 1.0 uCi of γ-^33P-ATP, 4.34 ug of cyclin D-cdk4 enzyme, 4% DMSO, and various concentrations of inhibitor. The reaction was incubated at room temperature (about 74° F.) for 60 minutes, and then terminated by the addition of 100 ul of 10% phosphoric acid. Next, the reaction was filtered through a Millipore Multiscreen-PH Plate—Catalog number MAPH NOB 10, and the plate was washed 2 times with 320 ul each of 0.5% phosphoric acid, followed by the addition of 100 ul of scintillation fluid and quantitation on a Packard Instruments, Top Count, scintillation counter.

T1 sequence (P11802 whole entry): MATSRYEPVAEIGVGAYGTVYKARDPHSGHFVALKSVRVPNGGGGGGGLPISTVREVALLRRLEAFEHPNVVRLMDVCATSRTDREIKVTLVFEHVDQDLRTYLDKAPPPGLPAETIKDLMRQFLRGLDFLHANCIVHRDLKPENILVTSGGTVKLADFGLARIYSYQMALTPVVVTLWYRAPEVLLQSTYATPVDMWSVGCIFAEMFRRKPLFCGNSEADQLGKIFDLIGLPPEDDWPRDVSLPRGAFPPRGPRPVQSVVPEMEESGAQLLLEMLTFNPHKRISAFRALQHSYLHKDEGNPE
T1 sequence (P24385 whole entry partner): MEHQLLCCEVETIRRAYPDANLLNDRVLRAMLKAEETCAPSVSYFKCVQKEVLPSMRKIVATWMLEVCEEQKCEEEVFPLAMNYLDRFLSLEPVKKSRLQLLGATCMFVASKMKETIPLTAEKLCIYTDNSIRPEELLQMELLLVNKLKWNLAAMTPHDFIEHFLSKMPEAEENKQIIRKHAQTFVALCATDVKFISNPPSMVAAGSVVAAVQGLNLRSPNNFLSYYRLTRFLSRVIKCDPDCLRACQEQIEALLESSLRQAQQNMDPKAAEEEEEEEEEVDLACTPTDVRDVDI

| Compound | IC50 [nM] |
| --- | --- |
| O=C1NC(=O)c2c1c1c3ccccc3[nH]c1c1c2c2cccc3c2n1CC(CO)C3 (stereo not drawn) | 127 |
| O=C1NC(=O)c2c1c1c3ccccc3[nH]c1c1c2c2cccc3c2n1C(CO)CC3 (stereo not drawn) | 78.7 |
| O=C1NC(=O)c2c1c1c3ccccc3[nH]c1c1c2c2cccc3c2n1CCC3CO (stereo not drawn) | 64.5 |
| O=C1NC(=O)C(c2cn3c4c(cccc24)CCC3CO)=C1c1c[nH]c2ccccc12 (stereo not drawn) | 151 |
| CC1(C)CCn2cc(C3=C(c4c[nH]c5ccccc45)C(=O)NC3=O)c3cc(F)cc1c32 | 1560 |
| CC1(C)Cc2cccc3c(C4=C(c5c[nH]c6cc(CN)ccc56)C(=O)NC4=O)cn(c23)C1 | 793 |
| CN1Cc2cccc3c(C4=C(c5c[nH]c6ccccc56)C(=O)NC4=O)cn(c23)C1 | 455 |
| O=C1NC(=O)c2c1c1c3ccccc3[nH]c1c1c2c2cccc3c2n1CCC3 [drawing 212] | 105 |
| CC(C)(C)OC[C@H]1Cn2c3c(cccc3c3c4c(c5c6ccccc6[nH]c5c32)C(=O)NC4=O)CN1 [drawing 213] | 116 |
| CC1Cn2c3c(cccc3c3c4c(c5c6ccccc6[nH]c5c32)C(=O)NC4=O)CN1C(=O)[C@H](C)N (stereo partly drawn) [drawing 217] | 269 |
| CC1(C)CCn2c3c1cc(F)cc3c1c3c(c4c5ccccc5[nH]c4c12)C(=O)NC3=O [drawing 218] | 466 |
| CC1(C)Cc2cccc3c4c5c(c6c7ccc(CN)cc7[nH]c6c4n(c23)C1)C(=O)NC5=O [drawing 219] | 173 |
| O=C1NC(=O)c2c1c1c3ccc(CN4CCCC4)cc3[nH]c1c1c2c2cccc3c2n1CCC3 [drawing 220] | 51.3 |
| CN1Cc2cccc3c4c5c(c6c7ccccc7[nH]c6c4n(c23)C1)C(=O)NC5=O [drawing 221] | 36.8 |
| O=C1NC(=O)C(c2cn3c4c(cccc24)CCC3)=C1c1c[nH]c2ccccc12 [drawing 222] | 786 |
| O=C1NC(=O)C(c2cn3c4c(cccc24)CC(CO)C3)=C1c1c[nH]c2ccccc12 (stereo not drawn) [drawing 223] | 367 |

tested on: HCT-116 and NCI H460 cell lines; experiment: Cell Cycle Analysis Using Flow Cytometry; type: cell-based; conditions: compound at 1×IC50 and 3×IC50, 24 hours, DNA histogram analysis
Method: Cell Cycle Analysis Using Flow Cytometry
The HCT-116 and NCI H460 cell lines were seeded in 75 cm^2 flasks at 5×10^5 cells/25 ml RPMI 1640 medium containing 10% dialyzed fetal bovine serum. They were incubated for 24 hours. Compound is then added at 1×IC50 and 3×IC50 (determined from above section “growth inhibition studies”) and incubated for an additional 24 hours. The cells were subsequently harvested and the protocol (Robinson, J. P. and Darzynkiewicz, Z. Current Protocols in Cytometry. 1997) for staining was followed. DNA histogram analysis was performed using ModFit LT (Verity House).

| Compound | cell cycle arrest |
| --- | --- |
| O=C1NC(=O)c2c1c1c3ccccc3[nH]c1c1c2c2cccc3c2n1CCC3 [Example 52, 11H, 12H, 14H-pyrrolo[3,4-c]quinolino[8′,8a′,1′:3,2,1]-pyrrolo[2,3-a]carbazole-5,7-dione] | arrest cells in the G1 phase of the cell cycle |

target: T1, cyclin D1-cdk4; experiment: Assay of Cyclin D1-cdk4 Kinase Activity with the Rb21 Protein as Substrate; type: biochemical; conditions: Rb21 protein 5 ug as substrate, 30 uM ATP, 60 minutes at room temperature
Method: Assay of Cyclin D1-cdk4 Kinase Activity with the Rb21 Protein as Substrate
The cyclin D1-cdk4 kinase activity of a compound was assayed by preparing a 100 ul reaction at the following concentrations: 20 mM Hepes pH 7.0, 10 mM MgCl2, 30 uM ATP, 5 ug of Rb21 protein (Santa Cruz Biotech, Catalog #sc-4112), 1.0 uCi of γ-^33P-ATP, 1.09 ug of cyclin D-cdk4 enzyme, 4% DMSO, and various concentrations of inhibitor. The reaction was incubated at room temperature (about 74° F.) for 60 minutes, and then terminated by the addition of 100 ul of 25% trichloroacetic acid. Next, the reaction was filtered through a Millipore Multiscreen-FC Plate—Catalog number MAFC NOB 10, and the plate was washed 2 times with 320 ul each of 10% trichloroacetic acid, followed by the addition of 100 ul of scintillation fluid and quantitation on a Packard Instruments, Top Count, scintillation counter.

| Compound | IC50 [nM] |
| --- | --- |
| O=C1NC(=O)c2c1c1c3ccccc3[nH]c1c1c2c2cccc3c2n1CCC3 [drawing 228] | 65 |
| CC(C)(C)OC[C@H]1Cn2c3c(cccc3c3c4c(c5c6ccccc6[nH]c5c32)C(=O)NC4=O)CN1 [drawing 229] | 66.6 |
| CC1Cn2c3c(cccc3c3c4c(c5c6ccccc6[nH]c5c32)C(=O)NC4=O)CN1C(=O)[C@H](C)N (stereo partly drawn) [drawing 233] | 180 |
| CC1(C)CCn2c3c1cc(F)cc3c1c3c(c4c5ccccc5[nH]c4c12)C(=O)NC3=O [drawing 234] | 202 |
| CC1(C)Cc2cccc3c4c5c(c6c7ccc(CN)cc7[nH]c6c4n(c23)C1)C(=O)NC5=O [drawing 235] | 30.1 |
| O=C1NC(=O)c2c1c1c3ccc(CN4CCCC4)cc3[nH]c1c1c2c2cccc3c2n1CCC3 [drawing 236] | 11.1 |
| CN1Cc2cccc3c4c5c(c6c7ccccc7[nH]c6c4n(c23)C1)C(=O)NC5=O [drawing 237] | 15.5 |
| O=C1NC(=O)C(c2cn3c4c(cccc24)CCC3)=C1c1c[nH]c2ccccc12 [drawing 238] | 709 |
| O=C1NC(=O)C(c2cn3c4c(cccc24)CC(CO)C3)=C1c1c[nH]c2ccccc12 (stereo not drawn) [drawing 239] | 811 |

tested on: HCT-116 or NCI H460 cells; experiment: Cell Growth Inhibition Assay (MTT); type: cell-based; conditions: 72 h of drug exposure
Method: Cell Growth Inhibition Assay
The MTT assay was used to measure growth inhibitory activity (Schultz, R. M., et. al. Oncology Res. 5, 223-228, 1993). […] Basically, 1000 HCT-116 or NCI H460 cells were added per well to 96-well flat-bottom plates in 100-ul RPMI 1640 medium containing 10% dialyzed fetal bovine serum. The plates were incubated for 24 h prior to addition of test compounds. A stock solution (10 mM) was prepared in DMSO and serially diluted in medium. Compound dilutions were added to triplicate wells, and the plates were incubated for 72 hours. […].

| Compound | cell growth inhibition |
| --- | --- |
| O=C1NC(=O)c2c1c1c3ccccc3[nH]c1c1c2c2cccc3c2n1CCC3 [Example 52, 11H, 12H, 14H-pyrrolo[3,4-c]quinolino[8′,8a′,1′:3,2,1]-pyrrolo[2,3-a]carbazole-5,7-dione] | inhibit cell growth |

tested on: protein kinase C; experiment: not given; conditions: cited from earlier work

| Compound | concentration inhibiting protein kinase C [μM/L] |
| --- | --- |
| CN1CC[C@H](c2c(O)cc(O)c3c(=O)cc(-c4ccccc4Cl)oc23)[C@H](O)C1 [Flavopiridol] | ≥ 10 |

tested on: Ser-780 pRb phosphorylation in HCT116 cells; experiment: Inhibition of Rb Phosphorylation Assay; type: cell-based, Human; conditions: compound at 1×, 2× and 3×IC50, 24 hours, immunoblot
Method: Inhibition of Rb Phosphorylation Assay
Human HCT116 colon carcinoma cell line was purchased from American Tissue Culture Collection (Rockville, Md.) and maintained as monolayer in RPMI-1640 with L-Glutamine and 25 mM HEPES supplemented with 10% fetal bovine serum in a 37° C. incubator with a 10% CO2 atmosphere. The detection of mycoplasm in cultured cells was performed using Mycoplasma Rapid Detection System (TaKaRa Shuzo Co. Ltd., Shiga, Japan) every 2-3 months and the cells were found consistently negative throughout these experiments. The Rb phosphorylation assay was done be plating 4×10^5 cells/well in 6-well plates. […] At the end of the incubation period the mediumj was removed and the cells were washed twice with cold PBS containing 1 mM sodium orthovanadate (Na3VO4). […] Protein concentration was determined by the Bio-Rad DC protein assay (Bio-Rad, Hercules, Calif.). […] Proteins were detected by capturing image of the membrane using Quantity One Software on a Fluor-S multi-Imager (Bio-Rad, Hercules, Calif.) in a linear range. Specific bands were quantified using Quantity One Software. […] Results are expressed as a percentage inhibition of Ser-780 pRb phosphorylation in drug treated cells versus control DMSO treated cells.

| Compound | inhibition of Ser-780 pRb phosphorylation |
| --- | --- |
| O=C1NC(=O)c2c1c1c3ccccc3[nH]c1c1c2c2cccc3c2n1CCC3 [Example 52, 11H, 12H, 14H-pyrrolo[3,4-c]quinolino[8′,8a′,1′:3,2,1]-pyrrolo[2,3-a]carbazole-5,7-dione] | inhibit Rb (retinoblastoma protein) phosphorylation |

tested on: protein kinase A; experiment: not given; conditions: cited from earlier work

| Compound | concentration inhibiting protein kinase A [μM/L] |
| --- | --- |
| CN1CC[C@H](c2c(O)cc(O)c3c(=O)cc(-c4ccccc4Cl)oc23)[C@H](O)C1 [Flavopiridol] | ≥ 10 |
